Assay results taken from patent publication US20050020576A1, “Kappa agonist compounds and pharmaceutical formulations thereof” (priority 1996, published 2005).
Values joined by “and” are separate entries in the source; they are usually repeats but may differ in a detail not shown here. Identical values can stand only once. Counter-ions that a name gives are not always drawn.

Legend:
[1] = biological target: T1, cloned human kappa receptor (Homo sapiens, UniProt P41145); assay: biochemical; type: binding; details: for inhibition at 1 µM: read-out: 3H-Diprenorphin, % @ 1 uM
T1 sequence (P41145 whole entry): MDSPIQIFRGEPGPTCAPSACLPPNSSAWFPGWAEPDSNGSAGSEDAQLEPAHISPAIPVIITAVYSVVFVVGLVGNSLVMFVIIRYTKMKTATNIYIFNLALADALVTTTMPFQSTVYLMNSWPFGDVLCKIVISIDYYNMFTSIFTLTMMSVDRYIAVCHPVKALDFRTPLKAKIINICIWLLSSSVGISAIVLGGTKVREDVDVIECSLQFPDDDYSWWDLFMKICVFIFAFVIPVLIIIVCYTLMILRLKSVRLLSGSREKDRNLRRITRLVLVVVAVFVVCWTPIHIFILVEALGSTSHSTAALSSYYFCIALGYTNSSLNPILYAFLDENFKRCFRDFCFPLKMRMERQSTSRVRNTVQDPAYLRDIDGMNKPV

[2] = test system: formalin-induced flinching; assay: animal or person; type: in vivo, male Sprague-Dawley rats
[3] = biological target: T1, cloned human kappa receptor; assay: [3H]U69593 (agonist) binding to the cloned human kappa receptor

In the case of `CN(C(=O)Cc1ccc(Cl)c(Cl)c1)[C@H](CN1CCCC1)c1cccc(NC(=O)/C=C\C(=O)O)c1` [Example 3h], the Ki ([1]; Ki (nM) [3H]-Diprenorphin κ) is reported as 1.8 nM, the “Late Phase Formalin, % @ 10” value ([2]; rat, in vivo) is reported as 59% @ 10 and the melting point is reported as 174 to 176 °C.

For `CN(C(=O)Cc1ccc(S(C)(=O)=O)cc1)[C@H](CN1CCCC1)c1cccc(NS(C)(=O)=O)c1.CS(=O)(=O)O` [Example 3e, 2-(4-Methanesulfonylphenyl)-N-methyl-N-{[1S]-1-[3-[(methylsulfonyl)amino]phenyl]-2-[1-pyrrolidinyl]ethyl}acetamide methanesulfonate], the Ki ([1]; Ki (nM) [3H]-Diprenorphin κ) was 3.2 nM, the “Late Phase Formalin, % @ 300” value ([2]; rat, in vivo) was 71% @ 300 and the melting point was 140 to 142 °C.

With `CC(=O)N1CCN(C(=O)Cc2ccccc2C(F)(F)F)C(CN2CCCC2)C1` (racemic) [(R,S-10c), (R,S)-4-Acetyl-1-[(2-trifluoromethylphenyl)acetyl]-3-[(1-pyrrolidinyl)-methyl]piperazinecarboxylate hydrochloride] the Ki ([3]; Ki, nM 3H-U-69,593) was 16 nM and the inhibition at 1 µM [1] was 45%.

In the case of `CC(=O)N1CCN(C(=O)Cc2ccccc2[N+](=O)[O-])C(CN2CCCC2)C1` (racemic) [(R,S-10e), (R,S)-4-Acetyl-1-[(2-nitrophenyl)acetyl]-3-[(1-pyrrolidinyl)-methyl]piperazine-carboxylate hydrochloride], the Ki ([3]; Ki, nM 3H-U-69,593) is reported as 24 nM and the Ki ([1]; Table I, read-out: Ki, nM 3H-Diprenorphin) is reported as 541 nM.

With `CN(C(=O)Cc1ccc(Cl)c(Cl)c1)[C@H](CN1CCCC1)c1cccc(NS(C)(=O)=O)c1.Cl` [Example 3f, 2-(3,4-Dichlorophenyl)-N-methyl-N-{[1S]-1-[3-[(methylsulfonyl)amino]phenyl]-2-[1-pyrrolidinyl]ethyl}acetamide hydrochloride] the Ki ([1]; Ki (nM) [3H]-Diprenorphin κ) was 0.18 nM, the “Late Phase Formalin A50” value ([2]; rat, in vivo) was 8.9 mg/kg and the melting point was 240 to 242 °C.

In the case of `CN(C(=O)C(c1ccccc1)c1ccccc1)[C@H]1c2cc(O)ccc2CC[C@@H]1N1CCCC1` (racemic) [II-4], the Ki ([3]; Table II, read-out: Ki (nM) k (mg) [3H]U69,593) is reported as 432 nM and the Ki ([1]; Table II, read-out: Ki (nM) k [3H] Diprenorphin) is reported as 549 nM.

Work on `COc1cc2c(cc1S(=O)(=O)N(C)Cc1ccccc1)[C@H](N(C)C(=O)Cc1ccc(Cl)c(Cl)c1)[C@@H](N1CCCC1)CC2` (racemic) [II-15] yielded a Ki ([3]; Ki (nM) k (mg) [3H]U69,593) of 8 nM and a Ki ([1]; Ki (nM) k [3H] Diprenorphin) of 48 nM.

For `CN(C(=O)Cc1ccc(Cl)c(Cl)c1)[C@H]1c2cc(S(=O)(=O)N(C)Cc3ccccc3)ccc2CC[C@@H]1N1CCCC1` (racemic) [II-16], the Ki ([3]; Ki (nM) k (mg) [3H]U69,593) was 40 nM and the Ki ([1]; Ki (nM) k [3H] Diprenorphin) was 200 nM.

In the case of `CC(C)(C)OC(=O)N[C@H](CC(=O)OCc1ccccc1)C(=O)N1CCN(C(=O)Cc2ccc(Cl)c(Cl)c2)[C@H](CN2CCCC2)C1` [(R-3d), (R)-4-N-t-Boc-D-aspartic acid-β-benzyl ester-1-[(3,4-dichlorophenyl)acetyl]-2-[(1-pyrrolidinyl)methyl]-piperazine], the Ki ([3]; read-out: Ki, nM 3H-U-69,593) is reported as 379 nM and 249 nM and the “3H-Diprenorphin, % @ 1 uM” value [1] is reported as 36% @ 1 uM.

For `CN(C(=O)Cc1ccc(C(F)(F)F)cc1NC(=O)/C=C\C(=O)O)[C@H](CN1CCCC1)c1ccccc1` [Example 3z], the Ki ([1]; Ki (nM) [3H]-Diprenorphin κ) was 1.7 nM, the “Late Phase Formalin, % @ 300” value ([2]; rat, in vivo) was 98% @ 300 and the melting point was 153 to 155 °C (dec.).

`CCOP(=O)(CCNc1ccc2c(c1)[C@H](N(C)C(=O)Cc1ccc(Cl)c(Cl)c1)[C@@H](N1CCCC1)CC2)OCC` (racemic) [II-13] showed a Ki ([3]; Ki (nM) k (mg) [3H]U69,593) of 2.2 nM and a Ki ([1]; Ki (nM) k [3H] Diprenorphin) of 6.2 nM.

With `CN(C(=O)Cc1ccc(C(F)(F)F)cc1N(S(C)(=O)=O)S(C)(=O)=O)C1CCCCC1N1CCCC1.Cl` (racemic) [Example 5j, (±)-trans-2-Bismethanesulfonamido-4-trifluoromethyl-N-methyl-N-[2-(1-pyrrolidinyl)cyclohexyl]-phenylacetamide Hydrochloride] the “% @ 1 μM, U-69593” value [3] was 48% @1 μM and the “% @ 1 μM, diprenorphine” value [1] was 13% @ 1 μM.

Molecule `CC(=O)N1CCN(C(=O)Cc2cccc([N+](=O)[O-])c2)C(CN2CCCC2)C1` (racemic) [(R,S-10d), (R,S)-4-Acetyl-1-[(3-nitrophenyl)acetyl]-3-[(1-pyrrolidinyl)-methyl]piperazine-carboxylate hydrochloride] has a Ki ([3]; Ki, nM 3H-U-69,593) of 0.72 nM and an inhibition at 1 µM [1] of 94%.

In the case of `CS(=O)(=O)c1ccc(CC(=O)N2CCN(S(C)(=O)=O)CC2CN2CCCC2)cc1` (racemic) [(R,S-8b), (R,S)-4-Methanesulfonyl-1-[(4-methylsulfonylphenyl)acetyl]-2-[(1-pyrrolidinyl)-methyl]piperazine hydrochloride], the Ki ([3]; Ki, nM 3H-U-69,593) is reported as 20 nM and 31 nM and the inhibition at 1 µM [1] is reported as 41%.

With `CN(C(=O)Cc1ccccc1C(=O)O)[C@H](CN1CCCC1)c1ccccc1.Cl` [Example 3kk, 2-(2-Carboxyphenyl)-N-methyl-N-{[1S]-1-phenyl-2-(1-pyrrolidinyl)ethyl}acetamide hydrochloride] the “[3H]-Diprenorphin κ, % @ 1 μM” value [1] was 53% @ 1 μM, the “Late Phase Formalin, % @ 300” value ([2]; rat, in vivo) was 23% @ 300 and the melting point was 230 to 232 °C (dec.).

Work on `CN(C(=O)Cc1ccc(Cl)c(Cl)c1)[C@H]1c2cc(N(CC(=O)OC(C)(C)C)CC(=O)OC(C)(C)C)ccc2CC[C@@H]1N1CCCC1` (racemic) [II-11] yielded a Ki ([3]; Ki (nM) k (mg) [3H]U69,593) of 2.8 nM and a Ki ([1]; Ki (nM) k [3H] Diprenorphin) of 7.4 nM.

With `CN(C(=O)Cc1ccc(Cl)c(S(N)(=O)=O)c1)[C@H](CN1CCCC1)c1ccccc1.CS(=O)(=O)O` [Example 3m, 2-(3-Sulfamoyl-4-chlorophenyl)-N-methyl-N-{[1S]-1-phenyl-2-[1-pyrrolidinyl]ethyl}acetamide methanesulfonate] the Ki ([1]; Ki (nM) [3H]-Diprenorphin κ) was 5.1 nM, the “Late Phase Formalin, % @ 300” value ([2]; rat, in vivo) was 65% @ 300 and the melting point was 220 to 222 °C.

In the case of `CN(C(=O)Cc1ccc(C(F)(F)F)cc1)[C@H](CN1CCCC1)c1cccc(NS(C)(=O)=O)c1.Cl` [Example 3d, 2-(4-Trifluoromethylphenyl)-N-methyl-N-{[1S]-1-[3-[(methylsulfonyl)amino]phenyl]-2-[1-pyrrolidinyl]ethyl}acetamide hydrochloride], the Ki ([1]; Ki (nM) [3H]-Diprenorphin κ) is reported as 0.28 nM, the “Late Phase Formalin A50” value ([2]; rat, in vivo) is reported as 16.0 mg/kg and the melting point is reported as 173 to 175 °C.

In the case of `CNS(=O)(=O)c1cc(CC(=O)N(C)[C@H](CN2CCCC2)c2ccccc2)ccc1F.Cl` [Example 3o, 2-[3-(N-Methylsulfamoyl)-4-fluorophenyl]-N-methyl-N-{[1S]-1-phenyl-2-[1-pyrrolidinyl]ethyl}acetamide hydrochloride], the Ki ([1]; Ki (nM) [3H]-Diprenorphin κ) is reported as 30.5 nM, the “Late Phase Formalin, % @ 300” value ([2]; rat, in vivo) is reported as 59% @ 300 and the melting point is reported as 278 to 280 °C.

With `CC(C)COC(=O)CNC(=O)CCC(=O)Nc1cccc([C@@H](CN2CCCC2)N(C)C(=O)Cc2ccc(Cl)c(Cl)c2)c1` [Example 3i, 2-(3,4-Dichlorophenyl)-N-methyl-N-{(1S)-1-[3-(3-(((iso-butoxycarbonyl)-methyl)aminocarbonyl)propionamido)phenyl]-2-(1-pyrrolidinyl)ethyl}acetamide hydrochloride] the Ki ([1]; Ki (nM) [3H]-Diprenorphin κ) was 0.14 nM and the “Late Phase Formalin, % @ 300” value ([2]; rat, in vivo) was 23% @ 300.

With `CN(C(=O)Cc1ccc(Cl)c(Cl)c1)[C@H]1c2cc(NC(=O)/C=C\C(=O)O)ccc2CC[C@@H]1N1CCCC1` [II-24] the Ki ([1]; Ki (nM) [3H] Diprenorphin κ) was 28 nM and the “Late Phase Formalin, % @ 300 μg” value ([2]; rat, in vivo) was 69% @ 300 μg.

Molecule `C=CCN1CCN(C(=O)Cc2ccc(Cl)c(Cl)c2)[C@H](CN2CCCC2)C1` [Example 1ff, 4-Allyl-1-[(3,4-dichlorophenyl)acetyl]-2-(R)-[(1-pyrrolidinyl)methyl]piperazine hydrochloride] has a Ki ([1]; Ki, nM 3H-Diprenorphin) of 0.58 nM and an inhibition in vivo at 0.3 µM ([2]; Rattus norvegicus, read-out: Formalin (% A @ 300 nM) i. paw) of 98%.

For `COc1cc(CC(=O)N(C)[C@H](CN2CCCC2)c2ccccc2)c(S(=O)(=O)N2CCCC2)cc1OC` [Example 134, 2-[2-(N-Pyrrolidinesulfamoyl)-4,5-dimethoxyphenyl]-N-methyl-N-[(1S)-1-phenyl-2-[(1-pyrrolidinyl)ethyl]]acetamide], the Ki ([1]; Ki (nM) [3H]-Diprenorphin κ) was 0.26 nM and the “Late Phase Formalin (i. paw), % @ 300” value ([2]; rat, in vivo) was 99% @ 300.
